Results reported in the kinase profiling compilation of Christmann-Franck et al. (2016).
Values joined by “and” are separate entries in the source; they are usually repeats but may differ in a detail not shown here. Equal values may be shown once.

Assays:
Assay in all cases: radiometric filter-binding kinase assay, Kinase HotSpot
Conditions in all cases: compound 0.5 µM; ATP 10 µM
[1] = target: AURKC (human) (UniProt Q9UQB9)
[2] = target: BMX (human) (UniProt P51813)
[3] = target: BRSK1 (human) (UniProt Q8TDC3)
[4] = target: CAMK1 (human) (UniProt Q14012)
Sequence of CAMK1 (human) (Q14012 whole entry, looked up): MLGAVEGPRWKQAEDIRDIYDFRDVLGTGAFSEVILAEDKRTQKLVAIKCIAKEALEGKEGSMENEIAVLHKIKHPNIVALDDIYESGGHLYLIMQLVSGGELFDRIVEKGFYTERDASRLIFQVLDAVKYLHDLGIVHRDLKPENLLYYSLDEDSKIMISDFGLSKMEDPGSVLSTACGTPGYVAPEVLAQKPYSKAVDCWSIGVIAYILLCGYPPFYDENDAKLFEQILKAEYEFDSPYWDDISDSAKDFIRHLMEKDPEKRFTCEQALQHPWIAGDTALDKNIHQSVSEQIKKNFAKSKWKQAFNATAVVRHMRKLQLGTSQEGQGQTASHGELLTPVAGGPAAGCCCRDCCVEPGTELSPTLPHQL

[5] = target: CDK2 CCNA2 (human) (UniProt P24941+P20248)
Sequence of CDK2 CCNA2 (human) (P20248 whole entry, looked up, other chains not shown): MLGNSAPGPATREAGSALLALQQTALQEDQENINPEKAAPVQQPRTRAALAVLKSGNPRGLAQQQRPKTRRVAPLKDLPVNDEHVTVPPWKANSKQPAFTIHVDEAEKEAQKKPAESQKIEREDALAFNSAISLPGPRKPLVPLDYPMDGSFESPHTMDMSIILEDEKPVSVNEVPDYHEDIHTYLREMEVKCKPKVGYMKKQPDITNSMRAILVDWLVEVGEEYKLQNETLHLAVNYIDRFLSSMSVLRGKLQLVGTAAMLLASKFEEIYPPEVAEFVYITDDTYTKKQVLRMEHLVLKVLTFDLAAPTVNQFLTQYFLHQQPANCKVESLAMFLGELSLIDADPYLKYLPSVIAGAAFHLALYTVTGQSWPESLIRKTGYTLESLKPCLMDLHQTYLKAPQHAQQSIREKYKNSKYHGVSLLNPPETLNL

[6] = target: CDK3 CCNE1 (human) (UniProt Q00526+P24864)
[7] = target: CDK9 CCNK (human) (UniProt O75909+P50750)
Sequence of CDK9 CCNK (human) (O75909 whole entry, looked up): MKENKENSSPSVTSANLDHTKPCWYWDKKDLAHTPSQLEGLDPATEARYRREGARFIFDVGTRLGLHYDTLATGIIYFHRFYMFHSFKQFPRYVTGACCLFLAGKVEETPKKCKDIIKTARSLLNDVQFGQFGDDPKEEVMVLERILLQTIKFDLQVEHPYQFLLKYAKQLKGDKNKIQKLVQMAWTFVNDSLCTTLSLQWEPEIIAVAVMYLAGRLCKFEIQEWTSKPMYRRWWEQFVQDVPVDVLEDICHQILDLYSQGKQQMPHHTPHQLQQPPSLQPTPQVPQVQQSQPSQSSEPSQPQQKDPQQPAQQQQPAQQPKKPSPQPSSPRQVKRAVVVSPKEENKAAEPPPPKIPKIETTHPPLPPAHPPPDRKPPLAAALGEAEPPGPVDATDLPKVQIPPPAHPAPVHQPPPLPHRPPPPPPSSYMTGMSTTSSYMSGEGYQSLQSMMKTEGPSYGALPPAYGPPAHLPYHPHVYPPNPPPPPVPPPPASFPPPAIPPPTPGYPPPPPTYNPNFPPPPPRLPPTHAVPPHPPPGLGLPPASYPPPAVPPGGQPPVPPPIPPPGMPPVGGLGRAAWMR
Sequence of CDK9 CCNK (human) (P50750 whole entry, looked up): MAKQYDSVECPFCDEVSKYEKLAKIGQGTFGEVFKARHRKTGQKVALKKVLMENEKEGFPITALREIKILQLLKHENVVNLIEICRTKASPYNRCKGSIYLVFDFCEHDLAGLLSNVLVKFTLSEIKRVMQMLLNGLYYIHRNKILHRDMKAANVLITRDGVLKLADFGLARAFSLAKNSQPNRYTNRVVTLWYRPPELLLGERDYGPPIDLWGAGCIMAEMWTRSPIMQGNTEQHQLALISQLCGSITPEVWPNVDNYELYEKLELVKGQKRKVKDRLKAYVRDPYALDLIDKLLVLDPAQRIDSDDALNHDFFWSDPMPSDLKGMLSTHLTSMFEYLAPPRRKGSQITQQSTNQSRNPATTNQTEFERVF

[8] = target: CSK (human) (UniProt P41240)
[9] = target: CSNK1E (human) (UniProt P49674)
[10] = target: CSNK1G1 (human) (UniProt Q9HCP0)
[11] = target: CSNK2A2 (human) (UniProt P19784)
Sequence of CSNK2A2 (human) (P19784 whole entry, looked up): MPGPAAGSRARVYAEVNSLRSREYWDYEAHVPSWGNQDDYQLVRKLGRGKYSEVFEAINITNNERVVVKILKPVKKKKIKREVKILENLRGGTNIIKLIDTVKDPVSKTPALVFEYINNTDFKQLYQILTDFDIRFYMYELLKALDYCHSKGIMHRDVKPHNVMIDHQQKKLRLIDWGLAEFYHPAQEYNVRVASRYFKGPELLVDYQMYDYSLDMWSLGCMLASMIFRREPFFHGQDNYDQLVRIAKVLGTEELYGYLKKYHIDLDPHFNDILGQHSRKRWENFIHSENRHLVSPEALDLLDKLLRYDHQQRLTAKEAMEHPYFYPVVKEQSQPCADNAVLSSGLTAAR

[12] = target: DYRK1A (human) (UniProt Q13627)
[13] = target: DYRK1B (human) (UniProt Q9Y463)
[14] = target: DYRK2 (human) (UniProt Q92630)
[15] = target: EPHA1 (human) (UniProt P21709)
[16] = target: EPHA3 (human) (UniProt P29320)
[17] = target: EPHB1 (human) (UniProt P54762)
[18] = target: FGR (human) (UniProt P09769)
[19] = target: FLT1 (human) (UniProt P17948)
[20] = target: GRK5 (human) (UniProt P34947)
Sequence of GRK5 (human) (P34947 whole entry, looked up): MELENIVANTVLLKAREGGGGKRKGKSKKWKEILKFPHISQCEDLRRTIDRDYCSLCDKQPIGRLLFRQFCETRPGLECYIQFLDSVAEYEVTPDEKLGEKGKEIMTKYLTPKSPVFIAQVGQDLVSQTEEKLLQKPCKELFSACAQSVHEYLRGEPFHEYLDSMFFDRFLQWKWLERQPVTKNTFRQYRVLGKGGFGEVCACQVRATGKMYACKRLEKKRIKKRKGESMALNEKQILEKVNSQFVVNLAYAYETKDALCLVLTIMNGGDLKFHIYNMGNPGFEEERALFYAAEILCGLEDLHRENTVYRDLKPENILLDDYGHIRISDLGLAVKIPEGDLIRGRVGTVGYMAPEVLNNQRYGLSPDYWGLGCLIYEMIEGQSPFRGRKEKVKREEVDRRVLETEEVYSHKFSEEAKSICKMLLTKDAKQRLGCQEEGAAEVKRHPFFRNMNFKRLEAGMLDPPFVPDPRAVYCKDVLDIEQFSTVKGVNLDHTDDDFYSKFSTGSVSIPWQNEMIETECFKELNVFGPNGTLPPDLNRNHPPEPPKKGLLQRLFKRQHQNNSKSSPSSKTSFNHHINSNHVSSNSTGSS

[21] = target: GRK6 (human) (UniProt P43250)
[22] = target: HIPK3 (human) (UniProt Q9H422)
[23] = target: INSR (human) (UniProt P06213)
[24] = target: JAK2 JH1 JH2 (human) (UniProt O60674)
[25] = target: MAP2K2 (human) (UniProt P36507)
[26] = target: MAP3K5 (human) (UniProt Q99683)
[27] = target: MAPK11 (human) (UniProt Q15759)
[28] = target: MAPK9 (human) (UniProt P45984)
[29] = target: MLTK (human) (UniProt Q9NYL2)
[30] = target: MST1R (human) (UniProt Q04912)
[31] = target: MYLK2 (human) (UniProt Q9H1R3)
[32] = target: NEK1 (human) (UniProt Q96PY6)
[33] = target: NEK11 (human) (UniProt Q8NG66)
Sequence of NEK11 (human) (Q8NG66 whole entry, looked up): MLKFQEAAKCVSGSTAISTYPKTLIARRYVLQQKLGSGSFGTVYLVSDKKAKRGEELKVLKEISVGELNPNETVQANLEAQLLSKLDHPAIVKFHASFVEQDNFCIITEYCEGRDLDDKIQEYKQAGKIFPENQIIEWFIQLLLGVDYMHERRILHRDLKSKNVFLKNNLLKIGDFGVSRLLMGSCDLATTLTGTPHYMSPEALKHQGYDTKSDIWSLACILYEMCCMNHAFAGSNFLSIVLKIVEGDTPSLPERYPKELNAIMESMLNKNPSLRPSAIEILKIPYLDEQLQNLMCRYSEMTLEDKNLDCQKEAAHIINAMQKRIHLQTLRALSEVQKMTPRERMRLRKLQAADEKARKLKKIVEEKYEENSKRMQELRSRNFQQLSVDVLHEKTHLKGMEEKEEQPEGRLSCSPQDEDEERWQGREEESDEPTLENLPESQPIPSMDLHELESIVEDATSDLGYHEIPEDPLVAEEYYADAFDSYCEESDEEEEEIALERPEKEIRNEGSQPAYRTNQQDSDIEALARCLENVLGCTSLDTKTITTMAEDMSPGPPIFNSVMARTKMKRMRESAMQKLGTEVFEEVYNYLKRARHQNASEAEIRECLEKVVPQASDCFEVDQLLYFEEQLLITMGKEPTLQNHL

[34] = target: PNCK (human) (UniProt Q6P2M8)
Sequence of PNCK (human) (Q6P2M8 whole entry, looked up): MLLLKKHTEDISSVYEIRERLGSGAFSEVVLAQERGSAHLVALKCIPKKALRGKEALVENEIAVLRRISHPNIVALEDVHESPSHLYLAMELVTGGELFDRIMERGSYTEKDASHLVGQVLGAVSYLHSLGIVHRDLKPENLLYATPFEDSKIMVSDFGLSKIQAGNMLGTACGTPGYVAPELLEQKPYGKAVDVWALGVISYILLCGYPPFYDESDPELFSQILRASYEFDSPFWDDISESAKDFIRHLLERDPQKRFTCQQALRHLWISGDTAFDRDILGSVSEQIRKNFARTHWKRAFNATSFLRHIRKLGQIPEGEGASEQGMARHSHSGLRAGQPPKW

[35] = target: PRKCD (human) (UniProt Q05655)
[36] = target: PRKCH (human) (UniProt P24723)
[37] = target: PRKG1 (human) (UniProt Q13976)
Sequence of PRKG1 (human) (Q13976 whole entry, looked up): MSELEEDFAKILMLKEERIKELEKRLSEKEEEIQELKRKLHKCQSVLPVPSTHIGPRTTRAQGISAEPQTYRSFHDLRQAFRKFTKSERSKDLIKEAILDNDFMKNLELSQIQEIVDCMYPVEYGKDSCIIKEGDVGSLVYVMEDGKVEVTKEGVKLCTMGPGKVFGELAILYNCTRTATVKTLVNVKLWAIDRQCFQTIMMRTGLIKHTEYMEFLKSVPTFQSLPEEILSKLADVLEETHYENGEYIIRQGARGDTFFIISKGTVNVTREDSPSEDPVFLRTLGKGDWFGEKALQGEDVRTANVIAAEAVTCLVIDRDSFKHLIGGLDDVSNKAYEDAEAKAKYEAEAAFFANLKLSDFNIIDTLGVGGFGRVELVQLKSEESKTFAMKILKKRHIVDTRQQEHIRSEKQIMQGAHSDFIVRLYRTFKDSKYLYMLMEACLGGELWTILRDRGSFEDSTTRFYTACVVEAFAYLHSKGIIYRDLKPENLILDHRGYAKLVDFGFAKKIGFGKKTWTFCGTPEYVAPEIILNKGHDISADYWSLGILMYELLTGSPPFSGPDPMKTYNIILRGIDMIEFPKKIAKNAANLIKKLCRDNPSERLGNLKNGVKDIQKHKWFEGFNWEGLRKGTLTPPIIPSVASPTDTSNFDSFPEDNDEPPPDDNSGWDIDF

[38] = target: RPS6KA2 KD1 KD2 (human) (UniProt Q15349)
[39] = target: SGK2 (human) (UniProt Q9HBY8)
Sequence of SGK2 (human) (Q9HBY8 whole entry, looked up): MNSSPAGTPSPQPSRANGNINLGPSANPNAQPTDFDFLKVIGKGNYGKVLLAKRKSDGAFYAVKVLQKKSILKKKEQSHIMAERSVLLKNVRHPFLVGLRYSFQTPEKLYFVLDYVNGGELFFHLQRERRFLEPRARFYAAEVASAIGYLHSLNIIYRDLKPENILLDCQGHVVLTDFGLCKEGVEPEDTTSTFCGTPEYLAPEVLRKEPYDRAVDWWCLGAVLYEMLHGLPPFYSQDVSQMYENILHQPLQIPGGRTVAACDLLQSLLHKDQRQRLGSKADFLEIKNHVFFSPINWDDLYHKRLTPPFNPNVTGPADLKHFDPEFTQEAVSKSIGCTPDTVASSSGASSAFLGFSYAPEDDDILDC

[40] = target: STK33 (human) (UniProt Q9BYT3)
[41] = target: TXK (human) (UniProt P42681)
[42] = target: VRK1 (human) (UniProt Q99986)

## CN(C)S(=O)(=O)c1ccc2c(c1)/C(=C/c1cc3c([nH]1)CCCC3)C(=O)N2
[1]
  residual activity: 33.8%
[2]
  residual activity: 103%
[3]
  residual activity: 32.4%
[4]
  residual activity: 107%
[5]
  residual activity: 90.6%
[6]
  residual activity: 96.9%
[7]
  residual activity: 96.9%
[8]
  residual activity: 93.1%
[9]
  residual activity: 104%
[10]
  residual activity: 101%
[11]
  residual activity: 92.1%
[12]
  residual activity: 81.1%
[13]
  residual activity: 93.6%
[14]
  residual activity: 103%
[15]
  residual activity: 94.5%
[16]
  residual activity: 98.6%
[17]
  residual activity: 82.8%
[18]
  residual activity: 18.2%
[19]
  residual activity: 84.9%
[20]
  residual activity: 95.3%
[21]
  residual activity: 82.6%
[22]
  residual activity: 107%
[23]
  residual activity: 91.6%
[24]
  residual activity: 46.1%
[25]
  residual activity: 104%
[26]
  residual activity: 106%
[27]
  residual activity: 108%
[28]
  residual activity: 104%
[29]
  residual activity: 99.4%
[30]
  residual activity: 101%
[31]
  residual activity: 97.9%
[32]
  residual activity: 93.1%
[33]
  residual activity: 82.5%
[34]
  residual activity: 95.7%
[35]
  residual activity: 95.5%
[36]
  residual activity: 78.5%
[37]
  residual activity: 82.5% and 88.6%
[38]
  residual activity: 52.8%
[39]
  residual activity: 101%
[40]
  residual activity: 77.2%
[41]
  residual activity: 96%
[42]
  residual activity: 104%

## Cc1nc(-c2ccccc2)c(-c2ccncc2)o1
[1]
  residual activity: 95.7%
[2]
  residual activity: 102%
[3]
  residual activity: 99.8%
[4]
  residual activity: 105%
[5]
  residual activity: 104%
[6]
  residual activity: 98.1%
[7]
  residual activity: 101%
[8]
  residual activity: 107%
[9]
  residual activity: 69.9%
[10]
  residual activity: 91.1%
[11]
  residual activity: 89.8%
[12]
  residual activity: 98.4%
[13]
  residual activity: 98.9%
[14]
  residual activity: 98.6%
[15]
  residual activity: 93.8%
[16]
  residual activity: 109%
[17]
  residual activity: 107%
[18]
  residual activity: 89.7%
[19]
  residual activity: 79.4%
[20]
  residual activity: 104%
[21]
  residual activity: 105%
[22]
  residual activity: 107%
[23]
  residual activity: 85.6%
[24]
  residual activity: 98.4%
[25]
  residual activity: 106%
[26]
  residual activity: 102%
[27]
  residual activity: 101%
[28]
  residual activity: 98.2%
[29]
  residual activity: 89%
[30]
  residual activity: 95.9%
[31]
  residual activity: 100%
[32]
  residual activity: 103%
[33]
  residual activity: 76.7%
[34]
  residual activity: 96.6%
[35]
  residual activity: 96.2%
[36]
  residual activity: 88.1%
[37]
  residual activity: 90.5% and 96.1%
[38]
  residual activity: 93%
[39]
  residual activity: 105%
[40]
  residual activity: 99.3%
[41]
  residual activity: 99.4%
[42]
  residual activity: 98.5%

## Ic1cccc(CSc2nnc(-c3ccncc3)o2)c1
[1]
  residual activity: 91.2%
[2]
  residual activity: 86.6%
[3]
  residual activity: 101%
[4]
  residual activity: 102%
[5]
  residual activity: 100%
[6]
  residual activity: 87.4%
[7]
  residual activity: 105%
[8]
  residual activity: 101%
[9]
  residual activity: 94.3%
[10]
  residual activity: 91.7%
[11]
  residual activity: 81%
[12]
  residual activity: 96.4%
[13]
  residual activity: 96.7%
[14]
  residual activity: 96.8%
[15]
  residual activity: 97%
[16]
  residual activity: 111%
[17]
  residual activity: 101%
[18]
  residual activity: 90.9%
[19]
  residual activity: 91%
[20]
  residual activity: 106%
[21]
  residual activity: 100%
[22]
  residual activity: 99.1%
[23]
  residual activity: 83.5%
[24]
  residual activity: 107%
[25]
  residual activity: 102%
[26]
  residual activity: 91.7%
[27]
  residual activity: 96.9%
[28]
  residual activity: 108%
[29]
  residual activity: 96.7%
[30]
  residual activity: 104%
[31]
  residual activity: 101%
[32]
  residual activity: 95.5%
[33]
  residual activity: 113%
[34]
  residual activity: 101%
[35]
  residual activity: 83.7%
[36]
  residual activity: 99.1%
[37]
  residual activity: 92.1% and 95.5%
[38]
  residual activity: 101%
[39]
  residual activity: 102%
[40]
  residual activity: 111%
[41]
  residual activity: 96.8%
[42]
  residual activity: 93.1%

## O=C1c2ccccc2-c2nc3nnnn3nc21
[1]
  residual activity: 95.4%
[2]
  residual activity: 79%
[3]
  residual activity: 84.8%
[4]
  residual activity: 68.7%
[5]
  residual activity: 70.3%
[6]
  residual activity: 73.4%
[7]
  residual activity: 74.4%
[8]
  residual activity: 84.8%
[9]
  residual activity: 80.6%
[10]
  residual activity: 85.2%
[11]
  residual activity: 76.2%
[12]
  residual activity: 95%
[13]
  residual activity: 81%
[14]
  residual activity: 113%
[15]
  residual activity: 73.1%
[16]
  residual activity: 81.6%
[17]
  residual activity: 89.5%
[18]
  residual activity: 79.8%
[19]
  residual activity: 3.06%
[20]
  residual activity: 74.3%
[21]
  residual activity: 58%
[22]
  residual activity: 101%
[23]
  residual activity: 32.3%
[24]
  residual activity: 82.6%
[25]
  residual activity: 94.7%
[26]
  residual activity: 106%
[27]
  residual activity: 101%
[28]
  residual activity: 51.9%
[29]
  residual activity: 69.8%
[30]
  residual activity: 93.6%
[31]
  residual activity: 88.1%
[32]
  residual activity: 46.3%
[33]
  residual activity: 88%
[34]
  residual activity: 83.4%
[35]
  residual activity: 102%
[36]
  residual activity: 49.2%
[37]
  residual activity: 109% and 133%
[38]
  residual activity: 89.1%
[39]
  residual activity: 75.1%
[40]
  residual activity: 107%
[41]
  residual activity: 90.8%
[42]
  residual activity: 90.5%
